Reference: ChEMBL document CHEMBL3091330, “Discovery of 3,4-Dihydropyrimidin-2(1H)-ones As a Novel Class of Potent and Selective A2B Adenosine Receptor Antagonists” (ACS Med Chem Lett, 2013)

Tests used:
[1] = target: T1, Adenosine receptor A3 (Homo sapiens) (UniProt P0DMS8); experiment: Displacement of [3H]NECA from adenosine A3 receptor in human HeLa cells at 10 uM after 180 mins; assay type: cell-based
T1 sequence (whole entry): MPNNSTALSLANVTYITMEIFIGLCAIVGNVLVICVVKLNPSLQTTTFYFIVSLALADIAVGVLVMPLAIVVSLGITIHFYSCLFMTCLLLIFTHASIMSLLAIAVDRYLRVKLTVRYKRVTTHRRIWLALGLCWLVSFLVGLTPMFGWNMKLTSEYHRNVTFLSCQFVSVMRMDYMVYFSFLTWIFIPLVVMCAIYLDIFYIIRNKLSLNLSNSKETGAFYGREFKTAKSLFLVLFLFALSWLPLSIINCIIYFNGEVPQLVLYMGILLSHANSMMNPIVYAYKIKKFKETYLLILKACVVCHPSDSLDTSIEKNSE

[2] = target: T2, Adenosine receptor A2b (Homo sapiens) (UniProt P29275); experiment: Displacement of [3H]DPCPX from human from adenosine A2B receptor in HEK293 cells at 10 uM after 30 mins by Scatchard plot analysis; assay type: cell-based
T2 sequence (whole entry): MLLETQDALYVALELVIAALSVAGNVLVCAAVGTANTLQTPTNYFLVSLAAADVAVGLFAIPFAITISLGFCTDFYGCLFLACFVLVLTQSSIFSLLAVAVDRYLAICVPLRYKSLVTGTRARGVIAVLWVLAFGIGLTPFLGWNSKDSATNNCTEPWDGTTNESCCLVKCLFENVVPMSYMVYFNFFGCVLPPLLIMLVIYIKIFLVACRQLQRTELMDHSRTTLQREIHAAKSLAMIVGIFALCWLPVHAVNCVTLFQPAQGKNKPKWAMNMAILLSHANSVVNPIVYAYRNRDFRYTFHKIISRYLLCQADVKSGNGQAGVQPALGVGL

[3] = target: T3, Adenosine receptor A2a (Homo sapiens, UniProt P29274); experiment: Displacement of [3H]ZM241385 from adenosine A2A receptor in human HeLa cells at 10 uM after 30 mins; assay type: cell-based
[4] = target: T4, Adenosine receptor A1 (Homo sapiens) (UniProt P30542); experiment: Displacement of [3H]DPCPX from human adenosine A1 receptor expressed in CHO cells at 10 uM after 60 mins; assay type: cell-based
T4 sequence (whole entry): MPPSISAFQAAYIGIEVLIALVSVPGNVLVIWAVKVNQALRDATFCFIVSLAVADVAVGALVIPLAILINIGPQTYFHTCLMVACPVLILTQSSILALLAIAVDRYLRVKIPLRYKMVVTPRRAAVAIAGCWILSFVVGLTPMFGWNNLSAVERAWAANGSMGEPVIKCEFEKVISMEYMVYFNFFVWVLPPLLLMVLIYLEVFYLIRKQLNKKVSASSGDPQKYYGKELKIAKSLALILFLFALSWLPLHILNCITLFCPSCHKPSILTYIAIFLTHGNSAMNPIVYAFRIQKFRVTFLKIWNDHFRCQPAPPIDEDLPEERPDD

[5] = target: T5, Adenosine receptor A2b (Homo sapiens, UniProt P29275); experiment: Displacement of [3H]DPCPX from human adenosine A2B receptor expressed in HEK293 cells after 30 mins by Scatchard plot analysis; assay type: cell-based
T5 sequence (P29275 whole entry): T2 sequence (whole entry)

[6] = target: T3, Adenosine receptor A2a; experiment: Displacement of [3H]ZM241385 from adenosine A2A receptor in human HeLa cells after 30 mins; assay type: cell-based
[7] = target: Cytochrome P450 3A4 (Homo sapiens, UniProt P08684); experiment: Inhibition of human recombinant CYP3A4 expressed in baculosomes at 100 fold Ki; assay type: ADME; conditions: recombinant enzyme
[8] = target: T6, Cytochrome P450 1A2 (Homo sapiens, UniProt P05177); experiment: Inhibition of human recombinant CYP1A2 expressed in baculosomes at 100 fold Ki; assay type: ADME; conditions: recombinant enzyme
T6 sequence (P05177 whole entry): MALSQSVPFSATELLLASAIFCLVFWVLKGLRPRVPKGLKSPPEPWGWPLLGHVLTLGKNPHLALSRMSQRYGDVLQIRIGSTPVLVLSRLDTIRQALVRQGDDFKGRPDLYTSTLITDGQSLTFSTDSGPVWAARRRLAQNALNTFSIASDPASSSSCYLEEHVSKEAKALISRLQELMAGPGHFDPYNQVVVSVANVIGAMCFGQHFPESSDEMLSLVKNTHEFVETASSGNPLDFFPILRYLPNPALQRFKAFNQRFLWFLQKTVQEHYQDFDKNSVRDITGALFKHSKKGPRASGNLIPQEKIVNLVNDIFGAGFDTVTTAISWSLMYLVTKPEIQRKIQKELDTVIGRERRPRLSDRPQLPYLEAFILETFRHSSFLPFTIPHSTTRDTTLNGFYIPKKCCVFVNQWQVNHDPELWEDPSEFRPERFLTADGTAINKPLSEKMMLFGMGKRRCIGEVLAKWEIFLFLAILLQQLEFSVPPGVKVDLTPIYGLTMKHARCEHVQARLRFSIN

[9] = target: T2, Adenosine receptor A2b (Homo sapiens); experiment: Antagonist activity at human adenosine A2B receptor expressed in HEK293 cells assessed as inhibition of NECA-stimulated cAMP accumulation incubated for 15 mins prior to NECA-challenge measured after 15 mins by spectrophotometry; assay type: functional, cell-based
[10] = target: T7, Adenosine receptor A1 (Homo sapiens, UniProt P30542); experiment: Displacement of [3H]DPCPX from human adenosine A1 receptor expressed in CHO cells after 60 mins; assay type: cell-based
T7 sequence (P30542 whole entry): T4 sequence (whole entry)

[11] = target: T8, Adenosine receptor A3 (Homo sapiens, UniProt P0DMS8); experiment: Displacement of [3H]NECA from adenosine A3 receptor in human HeLa cells after 180 mins; assay type: cell-based
T8 sequence (P0DMS8 whole entry): T1 sequence (whole entry)

T3 sequence (P29274 whole entry): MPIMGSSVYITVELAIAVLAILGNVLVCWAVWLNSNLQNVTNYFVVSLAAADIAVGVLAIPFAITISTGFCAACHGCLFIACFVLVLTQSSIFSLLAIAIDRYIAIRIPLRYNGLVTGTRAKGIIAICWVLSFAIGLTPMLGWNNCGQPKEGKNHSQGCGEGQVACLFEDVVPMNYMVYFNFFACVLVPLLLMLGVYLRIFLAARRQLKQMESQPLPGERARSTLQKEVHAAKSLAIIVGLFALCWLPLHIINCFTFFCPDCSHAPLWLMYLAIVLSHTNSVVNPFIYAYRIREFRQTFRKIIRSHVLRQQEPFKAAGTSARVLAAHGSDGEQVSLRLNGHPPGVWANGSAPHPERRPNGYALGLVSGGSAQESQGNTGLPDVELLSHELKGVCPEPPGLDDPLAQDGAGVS
Chain of Cytochrome P450 3A4 (P08684 whole entry): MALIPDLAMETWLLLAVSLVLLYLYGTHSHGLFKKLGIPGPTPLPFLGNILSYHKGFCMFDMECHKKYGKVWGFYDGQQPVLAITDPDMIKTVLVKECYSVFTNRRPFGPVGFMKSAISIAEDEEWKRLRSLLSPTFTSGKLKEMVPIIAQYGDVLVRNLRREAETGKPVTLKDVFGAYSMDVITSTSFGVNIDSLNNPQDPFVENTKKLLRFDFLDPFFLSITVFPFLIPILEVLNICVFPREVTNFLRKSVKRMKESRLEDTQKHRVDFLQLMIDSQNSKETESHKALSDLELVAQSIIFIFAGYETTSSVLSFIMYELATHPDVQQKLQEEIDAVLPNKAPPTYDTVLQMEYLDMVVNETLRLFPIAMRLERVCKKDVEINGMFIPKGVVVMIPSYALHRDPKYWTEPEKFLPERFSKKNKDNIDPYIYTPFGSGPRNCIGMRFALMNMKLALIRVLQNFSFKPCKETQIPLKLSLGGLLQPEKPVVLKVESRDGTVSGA

Compound	inhibition [1] [%]	inhibition [2] [%]	inhibition [3] [%]	inhibition [4] [%]	Ki [5] [nM]	Ki [6] [nM]	inhibition (INH) [7]	inhibition (INH) [8]	Kb [9] [nM]	Ki [10] [nM]	Ki [11] [nM]
CC1=C(C(=O)OC(C)C)C(c2cccs2)NC(=O)N1 (racemic)	14	44	19	37	–	–	–	–	–	–	–
CC1=C(C(=O)OC(C)C)C(c2ccsc2)NC(=O)N1C (racemic)	14	–	20	33	1810	–	–	–	–	–	–
CCOC(=O)C1=C(C(F)(F)F)NC(=O)NC1c1ccco1 (racemic)	2	2	32	15	–	–	–	–	–	–	–
CCOC(=O)C1=C(C)N=C(S)NC1c1ccco1 (racemic)	5	–	32	1	608	–	–	–	–	–	–
CCCOC(=O)C1=C(C)NC(=O)NC1c1ccco1 (racemic)	2	–	55	43	206	–	–	–	–	–	–
CC1=C(C(=O)OC(C)C)C(c2ccoc2)NC(=O)N1 (racemic)	3	–	26	25	1490	–	–	–	–	–	–
CC1=C(C(=O)OC(C)C)C(c2ccco2)NC(=O)N1 (racemic)	4	–	23	18	40.8	–	–	–	–	–	–
CCCC1=C(C(=O)OCC)C(c2ccco2)NC(=O)N1 (racemic)	19	–	–	50	256	602	–	–	–	–	–
CC1=C(C(=O)OC(C)C)C(c2ccoc2)NC(=O)N1C (racemic)	1	35	2	23	–	–	–	–	–	–	–
CC1=C(C(=O)OC(C)C)C(c2ccco2)NC(=O)N1C (racemic)	18	–	31	28	1150	–	–	–	–	–	–
CCOC(=O)C1=C(C)NC(=O)NC1c1cccs1 (racemic)	2	39	33	3	–	–	–	–	–	–	–
CC1=C(C(=O)OC(C)C)C(c2ccsc2)NC(=S)N1 (racemic)	3	–	20	16	416	–	–	–	–	–	–
CCOC(=O)C1=C(CC)NC(=O)NC1c1ccco1 (racemic)	3	–	41	29	715	–	–	–	–	–	–
CC1=C(C(=O)OC(C)(C)C)C(c2ccco2)NC(=O)N1 (racemic)	7	44	7	4	–	–	–	–	–	–	–
CCOC(=O)C1=C(C)NC(=S)NC1c1ccoc1 (racemic)	15	–	25	18	43.1	–	–	–	–	–	–
CC1=C(C(N)=O)C(c2ccco2)NC(=O)N1 (racemic)	2	2	1	2	–	–	–	–	–	–	–
CC1=C(C(=O)OC(C)C)C(c2ccsc2)NC(=O)N1 (racemic)	5	–	25	26	56.6	–	–	–	–	–	–
CC1=C(C(=O)Nc2ccccc2)C(c2ccco2)NC(=O)N1 (racemic)	5	31	7	24	–	–	–	–	–	–	–

Compound	inhibition [1] [%]	inhibition [2] [%]	inhibition [3] [%]	inhibition [4] [%]	Ki [5] [nM]	Ki [6] [nM]	inhibition (INH) [7]	inhibition (INH) [8]	Kb [9] [nM]	Ki [10] [nM]	Ki [11] [nM]
CCOC(=O)C1=C(C)N(C)C(=O)NC1c1cccs1 (racemic)	6	11	3	2	–	–	–	–	–	–	–
CC1=C(C(=O)OC(C)C)C(c2cccs2)NC(S)=N1 (racemic)	20	–	15	23	1570	–	–	–	–	–	–
CCOC(=O)C1=C(C)N=C(S)NC1c1cccs1 (racemic)	4	–	23	2	6250	–	–	–	–	–	–
CCOC(=O)C1=C(C)NC(=O)N(C(C)=O)C1c1ccco1 (racemic)	1	–	24	19	3110	–	–	–	–	–	–
CCOC(=O)C1=C(C)NC(=O)NC1c1ccoc1 (racemic)	1	–	24	21	39.6	–	–	–	–	–	–
CCOC(=O)C1=C(C)N(C)C(=O)NC1c1ccco1 (racemic)	25	–	5	17	6540	–	–	–	–	–	–
CCOC(=O)C1=C(C)N(C)C(=O)NC1c1ccoc1 (racemic)	1	–	24	17	4260	–	–	–	–	–	–
CC(=O)C1=C(C)NC(=O)NC1c1ccco1 (racemic)	14	38	21	30	–	–	–	–	–	–	–
CCOC(=O)c1c(-c2ccco2)nc(=O)[nH]c1C	15	–	11	6	3430	–	–	–	–	–	–
CC1=C(C(=O)OC(C)C)C(c2cccs2)NC(=O)N1C (racemic)	18	28	24	22	–	–	–	–	–	–	–
CCOC(=O)C1=C(C)N=C(S)NC1c1ccsc1 (racemic)	2	–	28	23	1100	–	–	–	–	–	–
CCOC(=O)C1=C(C)N(C)C(=O)NC1c1ccsc1 (racemic)	3	–	24	30	2970	–	–	–	–	–	–
COC(=O)C1=C(C)NC(=O)NC1c1ccco1 (racemic)	13	–	25	34	2160	–	–	–	–	–	–
CCOC(=O)C1=C(c2ccccc2)NC(=O)NC1c1ccco1 (racemic)	2	28	17	3	–	–	–	–	–	–	–
CCOC(=O)C1=C(C)NC(=O)NC1c1ccco1 (racemic)	2	–	31	15	586	–	–	–	–	–	–
CC1=C(C(=O)OC(C)C)C(c2ccoc2)NC(=S)N1 (racemic)	23	–	33	18	194	–	–	–	–	–	–
CCOC(=O)C1=C(C)NC(=O)NC1c1ccsc1 (racemic)	11	–	34	16	23.6	> 10000	Not Active	Not Active	25.2	> 10000	> 10000
CC1=C(C(=O)OC(C)C)C(c2ccco2)NC(=S)N1 (racemic)	4	–	18	15	10.2	> 10000	Not Active	Not Active	4.7	> 10000	> 10000
